Experimental data published in PMC12042115 (mLife, 2025).
Read-outs that look alike come from different tables or passages of the source.

Test system: wild‐type BCG cells
Assay type: cell-based, M. bovis BCG
Conditions: for Mean Ratio: GDI5755_2d vs DMSO_2d; for Mean Ratio / Mean Ratio (GDI5755_2d vs DMSO_2d): up-regulated; for Mean_Ratio (GDI5755_3d vs DMSO_3d): down-regulated, 3 d; for Mean Ratio (GDI5755_2d vs DMSO_2d): 2d

## O=C(Oc1ccc(Cl)cc1)c1ccc(N2CCOCC2)c([N+](=O)[O-])c1 [GDI‐5755]
Protein A0A0H3M8Y9 Cyclase
  Mean Ratio: 1.26
Protein A0A0H3M9B9 Acetoacetate decarboxylase
  Mean Ratio: 1.28
Protein A0A0H3M9C3 DUF3039 domain-containing protein
  Mean Ratio: 1.28
Protein A0A0H3M9D8 Possible conserved membrane alanine rich protein
  Mean Ratio: 1.31
Protein A0A0H3M9I1 Probable conserved secreted protein
  Mean Ratio: 1.30
Protein A0A0H3M9I4 Probable membrane glycine and proline rich protein
  Mean Ratio: 1.25
Protein A0A0H3M9K0 Probable penicillin-binding protein pbpA
  Mean Ratio: 1.25
Protein A0A0H3M9N6, BCG_0093 (Rv0062), Glucanase
  Mean_Ratio (GDI5755_3d vs DMSO_3d): 0.7
Protein A0A0H3M9Q0, BCG_2848c (Rv2828A), COGs COG0840
  Mean_Ratio (GDI5755_3d vs DMSO_3d): 0.7
Protein A0A0H3M9S4 Carrier domain-containing protein
  Mean Ratio: 1.26
Protein A0A0H3M9U5 Phosphatidate cytidylyltransferase
  Mean Ratio (GDI5755_2d vs DMSO_2d): 1.38
Protein A0A0H3M9Z8, BCG_2971c (Rv2950c), Probable fatty-acid-CoA ligase fadD29
  Mean_Ratio (GDI5755_3d vs DMSO_3d): 0.7
Protein A0A0H3M9Z9 Probable conserved transmembrane protein rich in alanine and arginine and proline
  Mean Ratio: 1.28
Protein A0A0H3M143 peptidoglycan glycosyltransferase
  Mean Ratio: 1.26
Protein A0A0H3M233, BCG_0693c (Rv0644c), Methoxy mycolic acid synthase 2 mmaA2
  Mean_Ratio (GDI5755_3d vs DMSO_3d): 0.7
Protein A0A0H3M245, BCG_0704 (Rv0655), Possible ribonucleotide-transport ATP-binding protein ABC transporter mkl
  Mean_Ratio (GDI5755_3d vs DMSO_3d): 0.7
Protein A0A0H3M252 Probable glutamine-binding lipoprotein glnH
  Mean Ratio (GDI5755_2d vs DMSO_2d): 1.33
Protein A0A0H3M331 Uncharacterized protein
  Mean Ratio (GDI5755_2d vs DMSO_2d): 1.34
Protein A0A0H3M363, BCG_0875c (Rv0822c), Cell envelope-associated transcriptional attenuator LytR-CpsA-Psr, subfamily A1
  Mean_Ratio (GDI5755_3d vs DMSO_3d): 0.752
Protein A0A0H3M469, BCG_1204c (MRA_1152), Probable enoyl-CoA hydratase echA10
  Mean_Ratio (GDI5755_3d vs DMSO_3d): 0.742
Protein A0A0H3M476, BCG_0711c (Rv0662c), Ribbon-helix-helix protein CopG domain-containing protein
  Mean_Ratio (GDI5755_3d vs DMSO_3d): 0.7
Protein A0A0H3M482 Conserved transmembrane protein
  Mean Ratio: 1.29
Protein A0A0H3M495, BCG_1238c (Rv1175c), Probable NADPH dependent 2,4-dienoyl-CoA reductase fadH
  Mean_Ratio (GDI5755_3d vs DMSO_3d): 0.758
Protein A0A0H3M519 Probable conserved lipoprotein
  Mean Ratio: 1.28
Protein A0A0H3M628 Probable lipoprotein lppP
  Mean Ratio: 1.31
Protein A0A0H3M639 Probable metal cation transporter P-type atpase G ctpG
  Mean Ratio (GDI5755_2d vs DMSO_2d): 1.33
Protein A0A0H3M660 Conserved membrane protein
  Mean Ratio (GDI5755_2d vs DMSO_2d): 1.39
Protein A0A0H3M672 Sirohydrochlorin cobaltochelatase
  Mean Ratio: 1.28
Protein A0A0H3M707 Probable conserved integral membrane alanine and valine and leucine rich protein
  Mean Ratio: 1.26
Protein A0A0H3M735, BCG_2390c (Rv2376c), Low molecular weight antigen cfp2
  Mean_Ratio (GDI5755_3d vs DMSO_3d): 0.7
Protein A0A0H3M760, BCG_0066 (Rv0035), Probable fatty-acid-coa ligase fadD34
  Mean_Ratio (GDI5755_3d vs DMSO_3d): 0.7
Protein A0A0H3M769 Lipid/polyisoprenoid-binding YceI-like domain-containing protein
  Mean Ratio: 1.28
Protein A0A0H3M827, BCG_2840c (Rv2821c), CRISPR system Cms endoribonuclease Csm3
  Mean_Ratio (GDI5755_3d vs DMSO_3d): 0.7
Protein A0A0H3M844, BCG_2251 (Rv2234), Phosphotyrosine protein phosphatase ptpA
  Mean_Ratio (GDI5755_3d vs DMSO_3d): 0.7
Protein A0A0H3M847 Probable conserved transmembrane alanine rich protein
  Mean Ratio: 1.26
Protein A0A0H3M848, BCG_3111 (Rv3086), alcohol dehydrogenase, adhD
  Mean_Ratio (GDI5755_3d vs DMSO_3d): 0.761
Protein A0A0H3M855 Acyl carrier protein
  Mean Ratio (GDI5755_2d vs DMSO_2d): 1.34
Protein A0A0H3M918 Protein-export membrane protein SecF
  Mean Ratio: 1.28
Protein A0A0H3M922, BCG_3278c (Rv3249c), Possible transcriptional regulatory protein (Probably tetR-family)
  Mean_Ratio (GDI5755_3d vs DMSO_3d): 0.757
Protein A0A0H3M964, BCG_1004c (Rv0950c), Peptidase M23 domain-containing protein
  Mean_Ratio (GDI5755_3d vs DMSO_3d): 0.7
Protein A0A0H3M969 HNH nuclease domain-containing protein
  Mean Ratio: 1.26
Protein A0A0H3M984, BCG_3389c (Rv3323c), Probable moaD-moaE fusion protein moaX
  Mean_Ratio (GDI5755_3d vs DMSO_3d): 0.756
Protein A0A0H3MA04 ATP-dependent zinc metalloprotease FtsH
  Mean Ratio (GDI5755_2d vs DMSO_2d): 1.34
Protein A0A0H3MA19, BCG_0251 (Rv0214), Probable fatty-acid-CoA ligase fadD4
  Mean_Ratio (GDI5755_3d vs DMSO_3d): 0.739
Protein A0A0H3MA36, BCG_3704c (Rv3646c), DNA topoisomerase 1
  Mean_Ratio (GDI5755_3d vs DMSO_3d): 0.7
Protein A0A0H3MA81, BCG_1461c (Rv1400c), Probable lipase lipH
  Mean_Ratio (GDI5755_3d vs DMSO_3d): 0.751
Protein A0A0H3MAA3 Possible conserved membrane protein
  Mean Ratio: 1.25
Protein A0A0H3MAA7, BCG_0352 (Rv0312), Conserved hypothetical proline and threonine rich protein
  Mean_Ratio (GDI5755_3d vs DMSO_3d): 0.739
Protein A0A0H3MAB2 Conserved membrane protein
  Mean Ratio (GDI5755_2d vs DMSO_2d): 1.33
Protein A0A0H3MAC6, BCG_0385c (Rv0346c), l-asparagine permease ansP2
  Mean_Ratio (GDI5755_3d vs DMSO_3d): 0.7
Protein A0A0H3MAC8 Possible conserved transmembrane protein
  Mean Ratio (GDI5755_2d vs DMSO_2d): 1.38
Protein A0A0H3MAD2, BCG_0398c (Rv0360c), DUF3151 domain-containing protein
  Mean_Ratio (GDI5755_3d vs DMSO_3d): 0.7
Protein A0A0H3MAE2 Probable carbon monoxyde dehydrogenase (Medium chain)
  Mean Ratio: 1.31
Protein A0A0H3MAF8 Serine/threonine-protein kinase PknG
  Mean Ratio: 1.26
Protein A0A0H3MAI2, BCG_0498 (Rv0458), Probable aldehyde dehydrogenase
  Mean_Ratio (GDI5755_3d vs DMSO_3d): 0.7
Protein A0A0H3MAI6, BCG_3192 (Rv3168), Aminoglycoside phosphotransferase domain-containing protein
  Mean_Ratio (GDI5755_3d vs DMSO_3d): 0.7
Protein A0A0H3MAK6, BCG_0543 (Rv0500A), Helix-turn-helix domain-containing protein
  Mean_Ratio (GDI5755_3d vs DMSO_3d): 0.757
Protein A0A0H3MAL3, BCG_3212c (Rv3190c), Restriction endonuclease
  Mean_Ratio (GDI5755_3d vs DMSO_3d): 0.7
Protein A0A0H3MAP0 Conserved hypothetical alanine valine rich protein
  Mean Ratio: 1.28
Protein A0A0H3MAW6 Uncharacterized protein
  Mean Ratio: 1.27
Protein A0A0H3MAY5 (BCG_0774) Possible protease IV sppA (Endopeptidase IV)
  Mean Ratio: 1.28
Protein A0A0H3MB28, BCG_3433c (Rv3361c), Pentapeptide repeat protein MfpA
  Mean_Ratio (GDI5755_3d vs DMSO_3d): 0.741
Protein A0A0H3MB50, BCG_3459 (Rv3390), Probable conserved lipoprotein lpqD
  Mean_Ratio (GDI5755_3d vs DMSO_3d): 0.7
Protein A0A0H3MB93, BCG_3517 (Rv3451), Cutinase
  Mean_Ratio (GDI5755_3d vs DMSO_3d): 0.7
Protein A0A0H3MB98, BCG_1906c (Rv1870c), Endonuclease
  Mean_Ratio (GDI5755_3d vs DMSO_3d): 0.7
Protein A0A0H3MBC9, BCG_3565c (Rv3501c), Conserved hypothetical integral membrane protein yrbE4A
  Mean_Ratio (GDI5755_3d vs DMSO_3d): 0.7
